PubChem BioAssay AID1963981 (Molecular Pharmacology Branch, DTP, NCI, 2024)
One block for each compound: values may come before it.

Tested on: 354836-022-R-J1-PDC multicell spheroid viability
Experiment: Anticancer human tumor 354836-022-R-J1-PDC patient-derived head and neck squamous cell carcinoma cell line growth inhibition [PI3K]
Conditions: for IC50: curve of first compound; for viability, T/C: stronger effect = lower value
In short: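 Targeted small molecules plus PI3K inhibitors, half-log dose series from Cmax (default top 10 microM), were applied to heterotypic spheroids of cancer cells with HUVEC and MSCs. Viability indicated growth inhibition.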

[1] = second compound 0.0316 µM, first compound 0.0316 µM
[2] = second compound 0.0316 µM, first compound 0.1 µM
[3] = second compound 0.0316 µM, first compound 0.316 µM
[4] = second compound 0.0316 µM, first compound 1 µM
[5] = second compound 0.0316 µM, first compound 3.16 µM
[6] = second compound 0.0316 µM, first compound 10 µM
[7] = second compound 0.1 µM, first compound 0.0316 µM
[8] = second compound 0.1 µM, first compound 0.1 µM
[9] = second compound 0.1 µM, first compound 0.316 µM
[10] = second compound 0.1 µM, first compound 1 µM
[11] = second compound 0.1 µM, first compound 3.16 µM
[12] = second compound 0.1 µM, first compound 10 µM
[13] = second compound 0.316 µM, first compound 0.0316 µM
[14] = second compound 0.316 µM, first compound 0.1 µM
[15] = second compound 0.316 µM, first compound 0.316 µM
[16] = second compound 0.316 µM, first compound 1 µM
[17] = second compound 0.316 µM, first compound 3.16 µM
[18] = second compound 0.316 µM, first compound 10 µM
[19] = second compound 1 µM, first compound 0.0316 µM
[20] = second compound 1 µM, first compound 0.1 µM
[21] = second compound 1 µM, first compound 0.316 µM
[22] = second compound 1 µM, first compound 1 µM
[23] = second compound 1 µM, first compound 3.16 µM
[24] = second compound 1 µM, first compound 10 µM
[25] = second compound 3.16 µM, first compound 0.0316 µM
[26] = second compound 3.16 µM, first compound 0.1 µM
[27] = second compound 3.16 µM, first compound 0.316 µM
[28] = second compound 3.16 µM, first compound 1 µM
[29] = second compound 3.16 µM, first compound 3.16 µM
[30] = second compound 3.16 µM, first compound 10 µM
[31] = second compound 10 µM, first compound 0.0316 µM
[32] = second compound 10 µM, first compound 0.1 µM
[33] = second compound 10 µM, first compound 0.316 µM
[34] = second compound 10 µM, first compound 1 µM
[35] = second compound 10 µM, first compound 3.16 µM
[36] = second compound 10 µM, first compound 10 µM
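Also: spheroids exposed to agents for seven days before the viability read.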

IC50 (second compound 0.0316 µM): 99.8 nM | IC50 (second compound 0.1 µM): 105 nM | IC50 (second compound 0.316 µM): 157 nM | IC50 (second compound 1 µM): 115 nM | IC50 (second compound 3.16 µM): 32.4 nM | IC50 (second compound 10 µM): < 31.6 nM
Compound: Cn1ncc(Cl)c1-c1cc(C(=O)NC(CN)Cc2cccc(F)c2)sc1Cl (centres undefined) + Cc1nc(NC(=O)N2CCCC2C(N)=O)sc1-c1ccnc(C(C)(C)C(F)(F)F)c1
viability, T/C [1]: 78.8% | viability, T/C [2]: 46.8% | viability, T/C [3]: 32.6% | viability, T/C [4]: 20.9% | viability, T/C [5]: 17.9% | viability, T/C [6]: 3.64% | viability, T/C [7]: 79.4% | viability, T/C [8]: 45% | viability, T/C [9]: 36.2% | viability, T/C [10]: 21.6% | viability, T/C [11]: 16.7% | viability, T/C [12]: 4.82% | viability, T/C [13]: 64.3% | viability, T/C [14]: 63.8% | viability, T/C [15]: 31.2% | viability, T/C [16]: 23% | viability, T/C [17]: 19.3% | viability, T/C [18]: 4.88% | viability, T/C [19]: 59.5% | viability, T/C [20]: 53.6% | viability, T/C [21]: 36.9% | viability, T/C [22]: 21.2% | viability, T/C [23]: 14.4% | viability, T/C [24]: 3.77% | viability, T/C [25]: 48.9% | viability, T/C [26]: 44.9% | viability, T/C [27]: 25.4% | viability, T/C [28]: 18.1% | viability, T/C [29]: 11.6% | viability, T/C [30]: 4.32% | viability, T/C [31]: 34.2% | viability, T/C [32]: 29.4% | viability, T/C [33]: 21.9% | viability, T/C [34]: 14.8% | viability, T/C [35]: 8.76% | viability, T/C [36]: 3.16%

IC50 (second compound 0.0316 µM): > 10000 nM | IC50 (second compound 0.1 µM): > 10000 nM | IC50 (second compound 0.316 µM): > 10000 nM | IC50 (second compound 1 µM): > 10000 nM | IC50 (second compound 3.16 µM): > 10000 nM | IC50 (second compound 10 µM): < 31.6 nM
Compound: C=CC(=O)N1CCN(c2nc(=O)n(-c3c(C)ccnc3C(C)C)c3nc(-c4c(O)cccc4F)c(F)cc23)C(C)C1 (centres undefined) + Cc1nc(NC(=O)N2CCCC2C(N)=O)sc1-c1ccnc(C(C)(C)C(F)(F)F)c1
viability, T/C [1]: 100% | viability, T/C [2]: 90.5% | viability, T/C [3]: 96.2% | viability, T/C [4]: 87.7% | viability, T/C [5]: 113% | viability, T/C [6]: 92.5% | viability, T/C [7]: 118% | viability, T/C [8]: 100% | viability, T/C [9]: 97.2% | viability, T/C [10]: 96.7% | viability, T/C [11]: 110% | viability, T/C [12]: 105% | viability, T/C [13]: 90.5% | viability, T/C [14]: 99.2% | viability, T/C [15]: 92.1% | viability, T/C [16]: 90.6% | viability, T/C [17]: 105% | viability, T/C [18]: 97.6% | viability, T/C [19]: 72.6% | viability, T/C [20]: 77.8% | viability, T/C [21]: 84.1% | viability, T/C [22]: 105% | viability, T/C [23]: 88% | viability, T/C [24]: 89.4% | viability, T/C [25]: 57.8% | viability, T/C [26]: 65.8% | viability, T/C [27]: 71.8% | viability, T/C [28]: 72.2% | viability, T/C [29]: 90.7% | viability, T/C [30]: 60.2% | viability, T/C [31]: 36.8% | viability, T/C [32]: 36.5% | viability, T/C [33]: 33.7% | viability, T/C [34]: 46.4% | viability, T/C [35]: 43.8% | viability, T/C [36]: 29.5%
